{
  "source": "patent US8357636B2",
  "about": "“Alkoxylated alkylamines/alkyl ether amines with peaked distribution” (Akzo Nobel N.V., priority 2004, dated 2013)",
  "assay": "Effect of EO adduct added to 62% K-glyphosate solution (clear or hazy)",
  "format": "physicochemical",
  "conditions": "~25% added into a 62% K-glyphosate solution",
  "from_the_text": "Therefore, even a slight reduction in concentration of the higher EO adduct could improve the cloud point of glyphosate formulation dramatically.",
  "data": [
    {"smiles": "OCCOCCO", "note": "[diethylene glycol]", "values": [
      {"measurement": "Appearance of solution after addition", "value": "clear solution"}
    ]}
  ]
}
